According to patent publication US20240285571A1, “METHODS OF TREATING BONE INFECTIONS” (MICROBION CORPORATION, priority 2020, published 2024):
Values after ≈ are worked out from the molar mass of the structure shown. Read-outs that look alike come from different tables or passages of the source.

Legend:
[1] = test system: S. aureus ATCC 29213; settings: per CLSI M100-S24 or provided by Microbion; cited from earlier work
[2] = test system: E. coli ATCC 25922; settings: per CLSI M100-S24 or provided by Microbion; cited from earlier work
[3] = test system: S. pneumoniae; assay: Broth microdilution MIC (Example 5); type: cell-based; settings: Streptococcus pneumoniae
How it was run: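 Endpoints are read from the plate bottom per CLSI criteria after 16-24 hr at 35° C. The isolates are tested by broth microdilution against two-fold drug dilution series, with inocula standardized to a 0.5 McFarland suspension.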

[4] = test system: E. coli; assay: Broth microdilution MIC (Example 5); type: cell-based, Escherichia coli; settings: Escherichia coli
Description: Test and Comparator Agents: The test agents were stored at room temperature until assayed. […] The stock solutions were allowed to stand for at least 1 hr prior to use to auto-sterilize.
TestMedia: Test media were prepared and stored in accordance with guidelines from CLSI (4, 6, 7).
Broth Microdilution MC Testing (Aerobic Bacteria and Yeast): The broth microdilution assay method employed for the susceptibility testing of aerobic bacteria (excluding N. gonorrhoeae which was evaluated by agar dilution) and yeast essentially followed the procedures described by CLSI (3, 4, 7, 8) and employed automated liquid handlers to conduct serial dilutions and liquid transfers. […] These would become the ‘mother plates’ from which ‘daughter’ or test plates would be prepared. The drugs (300 μL at 40× the desired top concentration in the test plates) were dispensed into the appropriate well in Column 1 of the mother plates. The Biomek 2000 was used to make serial two-fold dilutions through Column 11 in the “mother plate”. The wells of Column 12 contained no drug and ultimately served as the organism growth control wells.
The daughter plates were prepared using the Biomek FX which transferred 5 μL of drug solution from each well of a mother plate to the corresponding well of the correct daughter plate in a single step.
A standardized inoculum of each organism was prepared per CLSI methods (3, 7). Isolated colonies of each test isolate were picked from the primary plate and a suspension was prepared to equal a 0.5 McFarland turbidity standard. Standardized suspensions were then diluted […] (1:100 for yeast, 1:20 for bacteria). After dilution, the inoculum suspensions were then transferred to compartments of sterile reservoirs divided by length (Beckman Coulter), and the Biomek 2000 was used to inoculate all plates. Daughter plates were placed on the Biomek 2000 in reverse orientation so that plates were inoculated from low to high drug concentration.
The Biomek 2000 delivered 10 μL of standardized inoculum into each well of the appropriate daughter plate for an additional 1:20 dilution.
Plates were stacked 4 high, covered with a lid on the top plate, placed into plastic bags, and incubated at 35° C. for approximately 24-48 hr for all yeast isolates and 16-24 hr for aerobic bacteria. Plates were viewed from the bottom using a plate viewer. […] MIC endpoints for the test agents and control compounds were read per CLSI criteria (3, 7).

[5] = test system: B. fragilis; assay: Agar dilution MIC, anaerobes (Example 5); type: cell-based; settings: Bacteroides fragilis, ATCC25285
[6] = test system: anaerobes; assay: MIC summary, anaerobes (Example 5); type: cell-based, Bacteroides fragilis and Clostridium difficile; settings: read-out: MIC values across isolates
Description: Test and Comparator Agents: The test agents were stored at room temperature until assayed. All test agents were suspended and diluted in 100% dimethylsulfoxide (DMSO), and were ultimately tested at a final concentration of 0.06-64 μg/mL. The stock solutions were allowed to stand for at least 1 hr prior to use to auto-sterilize.
The susceptibility of anaerobic bacteria was determined by agar dilution using Brucella Agar (BD/BBL; Lot No. 5237692) supplemented with 5 μg/mL hemin (Sigma, St. Louis, MO; Lot No. 108K1088), 1 μg/mL Vitamin K1 and 5% (v/v) laked sheep blood (Cleveland Scientific, Bath, OH; Lot No. 322799).
Agar Dilution MIC Testing (Anaerobic Bacteria and Gonococci): MIC values for anaerobic bacteria were determined using a reference agar dilution method as described by CLSI (6). Organisms were grown at 35° C. in the Bactron II Anaerobic Chamber (Shel Lab, Cornelius, OR) for approximately 48 hr prior to the assay. Drug dilutions and drug-supplemented agar plates were prepared manually per CLSI (6). The plates were allowed to stand at room temperature for 1 hr to allow the agar surface to dry and pre-reduced for approximately 1 hr in the anaerobe chamber prior to inoculation. Each isolate was suspended to the equivalent of a 0.5 McFarland standard in Brucella broth using a turbidity meter (Dade Behring MicroScan, West Sacramento, CA). […] The MIC was read per CLSI guidelines (6).

[7] = test system: S. pneumoniae; settings: S. pneumoniae MMX 6837 (ATCC 49619); cited from earlier work
[8] = ATCC49619, S. pneumoniae MMX 6837 (ATCC 49619), QC
[9] = S. pneumoniae MMX 880, LevR SXTR CCR EryR PenR
[10] = S. pneumoniae MMX 937, MemR SXTR CCR EryR PenR
[11] = S. pneumoniae MMX 3959, CCR EryR
[12] = S. pneumoniae MMX 5440, MemR SXTR CCR EryR PenR
[13] = S. pneumoniae MMX 5445, MemR SXTR CCR EryR PenR
[14] = S. pneumoniae MMX 8133, MemR SXTR CCR EryR PenR

SMILES	MIC, acceptable range [1] [µg/mL]	MIC, expected results [1] [µg/mL]	MIC, acceptable range [2] [µg/mL]	MIC, expected results [2] [µg/mL]	MIC [3, 8] [µg/mL]	MIC [3, 9] [µg/mL]	MIC [3, 10] [µg/mL]	MIC [3, 11] [µg/mL]	MIC [3, 12] [µg/mL]	MIC [3, 13] [µg/mL]	MIC [3, 14] [µg/mL]	MIC ([3]; read-out: MIC values across isolates, pneumococci (Table 6)) [µg/mL]	MIC ([4]; ATCC25922, E. coli MMX 102 (ATCC 25922), QC, read-out: MIC) [µg/mL]	MIC ([4]; ATCCBAA2469, E. coli MMX 5980 (ATCC BAA-2469), NDM-1) [µg/mL]	MIC ([4]; E. coli MMX 8423, ESBL, LevR CAZR GmR, read-out: MIC) [µg/mL]	MIC ([4]; E. coli MMX 8424, ESBL, CAZR, read-out: MIC) [µg/mL]	MIC ([4]; E. coli MMX 8425, ESBL, LevR CAZR GmR, read-out: MIC) [µg/mL]	MIC [5] [µg/mL]	MIC [6] [µg/mL]	CLSI QC range of MIC [7]
NCC[C@H](O)C(=O)N[C@@H]1C[C@H](N)[C@@H](O[C@H]2O[C@H](CN)[C@@H](O)[C@H](O)[C@H]2O)[C@H](O)[C@H]1O[C@H]1O[C@H](CO)[C@@H](O)[C@H](N)[C@H]1O [Amikacin]	1 to 4	2 (≈ 3.42 µM)	0.5 to 4	1 to 2																
OCC(S)CS.[Bi] (stereo not drawn) [MB-2B, bismuth-2,3-dimercaptopropanol]					8	8	1	8	8	8	8	1 to 8	2	2	2	4	2	8	2 to 16	
CC(S)C(C)S.[Bi] (stereo not drawn) [MB-6, bismuth-2,3-butanedithiol]	0.12 to 0.5	0.25			0.5	0.5	8	1	0.5	0.5	0.5							1		
C[C@@H](O)[C@H]1C(=O)N2C(C(=O)O)=C(S[C@@H]3CN[C@H](C(=O)N(C)C)C3)[C@H](C)[C@H]12 [Meropenem]																				(0.06-0.25) μg/mL
